The conditions of this data set: 1.0% DMSO, 24-hour incubation at ambient temperature, maximum theoretical 100 μM; for pH 2 solubility: 0.1N HCl, first value of the cell; for pH 7 solubility: 1×PBS buffer (pH 7.4), second value of the cell.

The structures appear in SMILES notation.

For `CC(C)(CNC(=O)N(c1nn(CC(F)(F)F)c2c(-c3ccc(C#CC(C)(C)S(C)(=O)=O)nc3[C@H](Cc3cc(F)cc(F)c3)NC(=O)Cn3nc(C(F)(F)F)c4c3C(F)(F)[C@@H]3C[C@H]43)ccc(Cl)c12)S(C)(=O)=O)OP(=O)(O)O` [Compound 33, 1-(3-(4-chloro-7-(2-((S)-1-(2-((3bS,4aR)-5,5-difluoro-3-(trifluoromethyl)-3b,4,4a,5-tetrahydro-1H-cyclopropa[3,4]cyclopenta[1,2-c]pyrazol-1-yl)acetamido)-2-(3,5-difluorophenyl)ethyl)-6-(3-methyl-3-(methylsulfonyl)but-1-yn-1-yl)pyridin-3-yl)-1-(2,2,2-trifluoroethyl)-1H-indazol-3-yl)-3-(methylsulfonyl)ureido)-2-methylpropan-2-yl dihydrogen phosphate], the “pH 2 solubility” value turned out to be 6 μM and the “pH 7 solubility” value was 16 μM.
`CC(C)(C#Cc1ccc(-c2ccc(Cl)c3c(N(C(=O)C(N)=O)S(C)(=O)=O)nn(CC(F)(F)F)c23)c([C@H](Cc2cc(F)cc(F)c2)NC(=O)Cn2nc(C(F)(F)F)c3c2C(F)(F)[C@@H]2C[C@H]32)n1)S(C)(=O)=O` [Compound 10, N1-(4-chloro-7-(2-((S)-1-(2-((3bS,4aR)-5,5-difluoro-3-(trifluoromethyl)-3b,4,4a,5-tetrahydro-1H-cyclopropa[3,4]cyclopenta[1,2-c]pyrazol-1-yl)acetamido)-2-(3,5-difluorophenyl)ethyl)-6-(3-methyl-3-(methylsulfonyl)but-1-yn-1-yl)pyridin-3-yl)-1-(2,2,2-trifluoroethyl)-1H-indazol-3-yl)-N1-(methylsulfonyl)oxalamide]: the “pH 2 solubility” value is given as 2/2 μM and the “pH 7 solubility” value is 2/2 μM.
Consider `CC(C)(C#Cc1ccc(-c2ccc(Cl)c3c(N(C(=O)CCN4CCOCC4)S(C)(=O)=O)nn(CC(F)(F)F)c23)c([C@H](Cc2cc(F)cc(F)c2)NC(=O)Cn2nc(C(F)(F)F)c3c2C(F)(F)[C@@H]2C[C@H]32)n1)S(C)(=O)=O` [Compound 5, N-(4-chloro-7-(2-((S)-1-(2-((3bS,4aR)-5,5-difluoro-3-(trifluoromethyl)-3b,4,4a,5-tetrahydro-1H-cyclopropa [3,4]cyclopenta [1,2-c]pyrazol-1-yl)acetamido)-2-(3,5-difluorophenyl)ethyl)-6-(3-methyl-3-(methylsulfonyl)but-1-yn-1-yl)pyridin-3-yl)-1-(2,2,2-trifluoroethyl)-1H-indazol-3-yl)-N-(methylsulfonyl)-3-morpholinopropanamide], for which the “pH 2 solubility” value came to 39 μM and the “pH 7 solubility” value is 9 μM.
In the same order, the values of `CN(C(=O)N(c1nn(CC(F)(F)F)c2c(-c3ccc(C#CC(C)(C)S(C)(=O)=O)nc3[C@H](Cc3cc(F)cc(F)c3)NC(=O)Cn3nc(C(F)(F)F)c4c3C(F)(F)[C@@H]3C[C@H]43)ccc(Cl)c12)S(C)(=O)=O)C(C)(C)C(=O)OCOP(=O)(O)O` [Compound 85, (phosphonooxy)methyl 2-(3-(4-chloro-7-(2-((S)-1-(2-((3bS,4aR)-5,5-difluoro-3-(trifluoromethyl)-3b,4,4a,5-tetrahydro-1H-cyclopropa[3,4]cyclopenta[1,2-c]pyrazol-1-yl)acetamido)-2-(3,5-difluorophenyl)ethyl)-6-(3-methyl-3-(methylsulfonyl)but-1-yn-1-yl)pyridin-3-yl)-1-(2,2,2-trifluoroethyl)-1H-indazol-3-yl)-1-methyl-3-(methylsulfonyl)ureido)-2-methylpropanoate] are 5 μM and 65 μM.
As for `CC(C)(C#Cc1ccc(-c2ccc(Cl)c3c(N(C(=O)OCCCCCOP(=O)(O)O)S(C)(=O)=O)nn(CC(F)(F)F)c23)c([C@H](Cc2cc(F)cc(F)c2)NC(=O)Cn2nc(C(F)(F)F)c3c2C(F)(F)[C@@H]2C[C@H]32)n1)S(C)(=O)=O` [Compound 104, 5-(phosphonooxy)pentyl (4-chloro-7-(2-((S)-1-(2-((3bS,4aR)-5,5-difluoro-3-(trifluoromethyl)-3b,4,4a,5-tetrahydro-1H-cyclopropa[3,4]cyclopenta[1,2-c]pyrazol-1-yl)acetamido)-2-(3,5-difluorophenyl)ethyl)-6-(3-methyl-3-(methylsulfonyl)but-1-yn-1-yl)pyridin-3-yl)-1-(2,2,2-trifluoroethyl)-1H-indazol-3-yl)(methylsulfonyl)carbamate], the “pH 2 solubility” value turned out to be 1 μM and the “pH 7 solubility” value is on record as 89 μM.
Regarding `CC(C)(C#Cc1ccc(-c2ccc(Cl)c3c(N(C(=O)OCCCCOP(=O)(O)O)S(C)(=O)=O)nn(CC(F)(F)F)c23)c([C@H](Cc2cc(F)cc(F)c2)NC(=O)Cn2nc(C(F)(F)F)c3c2C(F)(F)[C@@H]2C[C@H]32)n1)S(C)(=O)=O` [Compound 102, 4-(phosphonooxy)butyl (4-chloro-7-(2-((S)-1-(2-((3bS,4aR)-5,5-difluoro-3-(trifluoromethyl)-3b,4,4a,5-tetrahydro-1H-cyclopropa[3,4]cyclopenta[1,2-c]pyrazol-1-yl)acetamido)-2-(3,5-difluorophenyl)ethyl)-6-(3-methyl-3-(methylsulfonyl)but-1-yn-1-yl)pyridin-3-yl)-1-(2,2,2-trifluoroethyl)-1H-indazol-3-yl)(methylsulfonyl)carbamate], the “pH 2 solubility” value is recorded as 1 μM and the “pH 7 solubility” value turned out to be 100 μM.
For the molecule `CC(C)(C#Cc1ccc(-c2ccc(Cl)c3c(N(C(=O)OCCOCCOCCOCCOP(=O)(O)O)S(C)(=O)=O)nn(CC(F)(F)F)c23)c([C@H](Cc2cc(F)cc(F)c2)NC(=O)Cn2nc(C(F)(F)F)c3c2C(F)(F)[C@@H]2C[C@H]32)n1)S(C)(=O)=O` [Compound 110, 2-(2-(2-(2-(phosphonooxy)ethoxy)ethoxy)ethoxy)ethyl (4-chloro-7-(2-((S)-1-(2-((3bS,4aR)-5,5-difluoro-3-(trifluoromethyl)-3b,4,4a,5-tetrahydro-1H-cyclopropa[3,4]cyclopenta[1,2-c]pyrazol-1-yl)acetamido)-2-(3,5-difluorophenyl)ethyl)-6-(3-methyl-3-(methylsulfonyl)but-1-yn-1-yl)pyridin-3-yl)-1-(2,2,2-trifluoroethyl)-1H-indazol-3-yl)(methylsulfonyl)carbamate], the “pH 2 solubility” value was 1 μM and the “pH 7 solubility” value is reported as 100 μM.
As to `CC(C)(C)C(=O)OCN(c1nn(CC(F)(F)F)c2c(-c3ccc(C#CC(C)(C)S(C)(=O)=O)nc3[C@H](Cc3cc(F)cc(F)c3)NC(=O)Cn3nc(C(F)(F)F)c4c3C(F)(F)[C@@H]3C[C@H]43)ccc(Cl)c12)S(C)(=O)=O` [Compound 30, (N-(4-chloro-7-(2-((S)-1-(2-((3bS,4aR)-5,5-difluoro-3-(trifluoromethyl)-3b,4,4a,5-tetrahydro-1H-cyclopropa[3,4]cyclopenta[1,2-c]pyrazol-1-yl)acetamido)-2-(3,5-difluorophenyl)ethyl)-6-(3-methyl-3-(methylsulfonyl)but-1-yn-1-yl)pyridin-3-yl)-1-(2,2,2-trifluoroethyl)-1H-indazol-3-yl)methylsulfonamido)methyl pivalate], the “pH 2 solubility” value is on record as 1/1 μM and the “pH 7 solubility” value was 1/1 μM.
On to `CC(C)(C#Cc1ccc(-c2ccc(Cl)c3c(N(C(=O)OCCCCCO)S(C)(=O)=O)nn(CC(F)(F)F)c23)c([C@H](Cc2cc(F)cc(F)c2)NC(=O)Cn2nc(C(F)(F)F)c3c2C(F)(F)[C@@H]2C[C@H]32)n1)S(C)(=O)=O` [Compound 103, 5-hydroxypentyl (4-chloro-7-(2-((S)-1-(2-((3bS,4aR)-5,5-difluoro-3-(trifluoromethyl)-3b,4,4a,5-tetrahydro-1H-cyclopropa[3,4]cyclopenta[1,2-c]pyrazol-1-yl)acetamido)-2-(3,5-difluorophenyl)ethyl)-6-(3-methyl-3-(methylsulfonyl)but-1-yn-1-yl)pyridin-3-yl)-1-(2,2,2-trifluoroethyl)-1H-indazol-3-yl)(methylsulfonyl)carbamate], for which the “pH 2 solubility” value is reported as 1/1 μM and the “pH 7 solubility” value is given as 1/1 μM.
Turning to `CC(C)(C#Cc1ccc(-c2ccc(Cl)c3c(N(C(=O)C(=O)NCCP(=O)(O)O)S(C)(=O)=O)nn(CC(F)(F)F)c23)c([C@H](Cc2cc(F)cc(F)c2)NC(=O)Cn2nc(C(F)(F)F)c3c2C(F)(F)[C@@H]2C[C@H]32)n1)S(C)(=O)=O` [Compound 11, (2-(2-(N-(4-chloro-7-(2-((S)-1-(2-((3bS,4aR)-5,5-difluoro-3-(trifluoromethyl)-3b,4,4a,5-tetrahydro-1H-cyclopropa[3,4]cyclopenta[1,2-c]pyrazol-1-yl)acetamido)-2-(3,5-difluorophenyl)ethyl)-6-(3-methyl-3-(methylsulfonyl)but-1-yn-1-yl)pyridin-3-yl)-1-(2,2,2-trifluoroethyl)-1H-indazol-3-yl)methylsulfonamido)-2-oxoacetamido)ethyl)phosphonic acid], the “pH 2 solubility” value is 5 μM and the “pH 7 solubility” value is recorded as 36 μM.
Turning to `CC(C)(O)CNC(=O)N(c1nn(CC(F)(F)F)c2c(-c3ccc(C#CC(C)(C)S(C)(=O)=O)nc3[C@H](Cc3cc(F)cc(F)c3)NC(=O)Cn3nc(C(F)(F)F)c4c3C(F)(F)[C@@H]3C[C@H]43)ccc(Cl)c12)S(C)(=O)=O` [Compound 32, N—((S)-1-(3-(4-chloro-3-(N-((2-hydroxy-2-methylpropyl)carbamoyl)methylsulfonamido)-1-(2,2,2-trifluoroethyl)-1H-indazol-7-yl)-6-(3-methyl-3-(methylsulfonyl)but-1-yn-1-yl)pyridin-2-yl)-2-(3,5-difluorophenyl)ethyl)-2-((3bS,4aR)-5,5-difluoro-3-(trifluoromethyl)-3b,4,4a,5-tetrahydro-1H-cyclopropa[3,4]cyclopenta[1,2-c]pyrazol-1-yl)acetamide], the “pH 2 solubility” value is listed as 1/1 μM and the “pH 7 solubility” value is recorded as 1/1 μM.

These data come from patent publication US12404262B2 (priority 2021, dated 2025).
